Where two headings read alike, the source gives them in different places.
Tested on: Mycosphaerella graminicola; Anamorph: Septoria tritici; Bayer Code SEPTTR
Assay: Leaf blotch of wheat, foliar fungicide treatment, one day protectant (1DP) or three day curative (3DC)
Type: in vivo, Septoria tritici on wheat plants (variety Yuma)
Settings: Zymoseptoria tritici; for pest or weed control at 50 ppm / pest or weed control at 200 ppm: % disease control rating
[1] = 24 h, one day protectant (1DP), 25 ppm (first 1DP column), percent control rating, read-out: SETTTR 1DP 25 ppm
[2] = 24 h, one day protectant (1DP), 25 ppm as printed (second 1DP column), percent control rating, read-out: SETTTR 1DP 25 ppm
[3] = 72 h, three day curative (3DC), 25 ppm, percent control rating, read-out: SEPTTR 3DC 25 ppm
[4] = 72 h, three day curative (3DC), percent control rating, read-out: SEPTTR 3DC 100 ppm
[5] = 24 h, one day protectant (1DP), 25 ppm, percent disease control rating, read-out: SETTTR 1DP 25 ppm
[6] = 24 h, one day protectant (1DP), percent disease control rating, read-out: SEPTTR 1DP 100 ppm
[7] = 72 h, three day curative (3DC), 25 ppm, percent disease control rating, read-out: SEPTTR 3DC 25 ppm
[8] = 72 h, three day curative (3DC), percent disease control rating, read-out: SEPTTR 3DC 100 ppm
[9] = 24 h, one day protectant, 25 ppm, rating of percent disease control, read-out: SETTTR 1DP 25 ppm
[10] = 24 h, one day protectant, rating of percent disease control, read-out: SEPTTR 1DP 100 ppm
[11] = 72 h, three day curative, 25 ppm, rating of percent disease control, read-out: SEPTTR 3DC 25 ppm
[12] = 72 h, three day curative, rating of percent disease control, read-out: SEPTTR 3DC 100 ppm
[13] = 24 h, one day protectant (1DP), 25 ppm, rating of percent disease control, read-out: SETTTR 1DP 25 ppm
[14] = 24 h, one day protectant (1DP), rating of percent disease control, read-out: SEPTTR 1DP 100 ppm
[15] = 72 h, three day curative (3DC), 25 ppm, rating of percent disease control, read-out: SEPTTR 3DC 25 ppm
[16] = 72 h, three day curative (3DC), rating of percent disease control, read-out: SEPTTR 3DC 100 ppm

Cc1ccc(COc2ncc(F)c(NNc3ccc(Br)cc3)n2)cc1 [Compound 1030]
pest or weed control at 25 ppm [1]: 0 to 25% | pest or weed control at 25 ppm [2]: 0 to 25% | pest or weed control at 25 ppm [3]: 0 to 25% | pest or weed control at 100 ppm [4]: 0 to 25%

COc1ccc(/C(C)=N/Oc2ncc(F)c(N)n2)cc1 [Compound 999]
pest or weed control at 25 ppm [1]: 76 to 100% | pest or weed control at 25 ppm [2]: 76 to 100% | pest or weed control at 25 ppm [3]: 76 to 100% | pest or weed control at 100 ppm [4]: 76 to 100%

ONc1nc(OCc2ccc(F)cc2)ncc1F [Compound 138]
pest or weed control at 25 ppm [5]: 76 to 100% | pest or weed control at 100 ppm [6]: 76 to 100% | pest or weed control at 25 ppm [7]: 76 to 100% | pest or weed control at 100 ppm [8]: 76 to 100%

Nc1nc(OCC2CC2)ncc1F [Compound 722]
pest or weed control at 25 ppm [9]: 0 to 25% | pest or weed control at 100 ppm [10]: 0 to 25% | pest or weed control at 25 ppm [11]: 0 to 25% | pest or weed control at 100 ppm [12]: 26 to 50%

CN(C)/C=N/c1nc(OC(=O)C2CC2)ncc1F [Compound 417]
pest or weed control at 25 ppm [13]: 76 to 100% | pest or weed control at 100 ppm [14]: 76 to 100% | pest or weed control at 25 ppm [15]: 76 to 100% | pest or weed control at 100 ppm [16]: 76 to 100%

CCCNC(=S)Nc1nc(OCc2ccc(C)cc2)ncc1F [Compound 48]
pest or weed control at 25 ppm [5]: 76 to 100% | pest or weed control at 100 ppm [6]: 76 to 100% | pest or weed control at 25 ppm [7]: 76 to 100% | pest or weed control at 100 ppm [8]: 76 to 100%

Fc1cnc(OCC(F)(F)F)nc1NCc1cccs1 [Compound 830]
pest or weed control at 50 ppm (24 h, one day protectant): 0 to 25% | pest or weed control at 200 ppm (24 h, one day protectant): 0 to 25%

Nc1nc(OCc2ccc(Br)cc2)ncc1F [Compound 757]
pest or weed control at 25 ppm [13]: 76 to 100% | pest or weed control at 100 ppm [14]: 76 to 100% | pest or weed control at 25 ppm [15]: 76 to 100% | pest or weed control at 100 ppm [16]: 76 to 100%

CCS(=O)(=O)Nc1nc(O)ncc1F [Compound 1105]
pest or weed control at 25 ppm [1]: 0 to 25% | pest or weed control at 25 ppm [2]: 0 to 25% | pest or weed control at 25 ppm [3]: 0 to 25% | pest or weed control at 100 ppm [4]: 0 to 25%

C=CCOc1ncc(F)c(NCc2ccccc2F)n1 [Compound 917]
pest or weed control at 50 ppm (24 h, one day protectant): 0 to 25% | pest or weed control at 200 ppm (24 h, one day protectant): 51 to 75%

Cc1ccc(COc2ncc(F)c(NC(=S)Nc3ccccc3F)n2)cc1 [Compound 778]
pest or weed control at 25 ppm [13]: 76 to 100% | pest or weed control at 100 ppm [14]: 76 to 100% | pest or weed control at 25 ppm [15]: 76 to 100% | pest or weed control at 100 ppm [16]: 76 to 100%

CC(=O)Nc1nc(OCc2cccc(F)c2)ncc1F [Compound 107]
pest or weed control at 25 ppm [5]: 76 to 100% | pest or weed control at 100 ppm [6]: 76 to 100% | pest or weed control at 25 ppm [7]: 76 to 100% | pest or weed control at 100 ppm [8]: 76 to 100%

CN(O)c1nc(OCc2ccc(F)cc2)ncc1F [Compound 487]
pest or weed control at 25 ppm [13]: 0 to 25% | pest or weed control at 100 ppm [14]: 76 to 100% | pest or weed control at 25 ppm [15]: 0 to 25% | pest or weed control at 100 ppm [16]: 76 to 100%

Cc1coc(C)c1C(=O)Nc1nc(O)ncc1F [Compound 977]
pest or weed control at 25 ppm [1]: 0 to 25% | pest or weed control at 25 ppm [2]: 51 to 75% | pest or weed control at 25 ppm [3]: 0 to 25% | pest or weed control at 100 ppm [4]: 76 to 100%

Cc1ccc(C)c(NNc2nc(OCc3ccccc3)ncc2F)c1 [Compound 1036]
pest or weed control at 25 ppm [1]: 0 to 25% | pest or weed control at 25 ppm [2]: 0 to 25% | pest or weed control at 25 ppm [3]: 0 to 25% | pest or weed control at 100 ppm [4]: 0 to 25%

Cc1cc(C(C)Oc2ncc(F)c(N)n2)ccc1Cl (stereo not shown) [Compound 597]
pest or weed control at 25 ppm [9]: 76 to 100% | pest or weed control at 100 ppm [10]: 76 to 100% | pest or weed control at 25 ppm [11]: 76 to 100% | pest or weed control at 100 ppm [12]: 76 to 100%

NN(Cc1ccccc1)c1nc(O)ncc1F [Compound 1093]
pest or weed control at 25 ppm [1]: 0 to 25% | pest or weed control at 25 ppm [2]: 0 to 25% | pest or weed control at 25 ppm [3]: 0 to 25% | pest or weed control at 100 ppm [4]: 0 to 25%

Fc1cnc(OCc2ccccc2Cl)nc1NCc1ccc(Cl)cc1 [Compound 879]
pest or weed control at 50 ppm (24 h, one day protectant): 76 to 100% | pest or weed control at 200 ppm (24 h, one day protectant): 76 to 100%

Fc1cnc(OCc2cccs2)nc1NCCc1ccccc1 [Compound 937]
pest or weed control at 50 ppm (24 h, one day protectant): 76 to 100% | pest or weed control at 200 ppm (24 h, one day protectant): 76 to 100%

O=C(Nc1nc(OCc2ccc(F)cc2)ncc1F)OCCl [Compound 262]
pest or weed control at 25 ppm [13]: 51 to 75% | pest or weed control at 100 ppm [14]: 76 to 100% | pest or weed control at 25 ppm [15]: 76 to 100% | pest or weed control at 100 ppm [16]: 76 to 100%

CCOC(=O)COC(=O)Nc1nc(OCc2cccc(F)c2)ncc1F [Compound 199]
pest or weed control at 25 ppm [13]: 0 to 25% | pest or weed control at 100 ppm [14]: 76 to 100% | pest or weed control at 25 ppm [15]: 51 to 75% | pest or weed control at 100 ppm [16]: 76 to 100%

— patent US9204653B2, “5-fluoro pyrimidine derivatives” (DOW AGROSCIENCES LLC, priority 2008, dated 2015)
